These results are taken from patent publication US5952464A, “Labelled peptide compounds” (Mallinckrodt Inc., priority 1994, dated 1999).

One may read the pIC50 as the negative decadic logarithm of the IC50, by convention in mol/L. A lower pIC50 goes with a large IC50. By Kd is commonly meant the constant that tells how readily two partners part at equilibrium.

A short description of data set [1]: enzymatic stability in vitro in human serum. The class given is in vitro ADME. Here is the method: The enzymatic stability of the four radioiodinated analogues (1), (2), (3) and (4) is determined in vitro in human serum in a conventional manner, showing that this stability is sufficient.
Data set [2] addresses neurotensin receptor sites. Kind of data set: inhibition of [3H]neurotensin binding to guinea pig forebrain membranes. Here is the method:
Binding assays are performed by studying the inhibition of [^3 H]neurotensin binding to guinea pig forebrain membranes. The following results are obtained, using the unlabelled acetyl compound […]-OH (SEQ ID NO:4) (a) as the reference.

Data set [3] concerns the target human brain neurotensin receptors. As to conditions: cited from earlier work.
Data set [4] addresses rat brain synaptic membranes. As to conditions: binding on rat brain synaptic membranes; cited from earlier work.
For data set [5] the following is noted: cited from earlier work.

Turning to “2-*I-benzoyl-^1 Arg-^2 Arg-^3 Pro-^4 Tyr-^5 Ile-^6 Leu-OH [(3)]”, in data set [1], the enzymatic stability entry is “sufficient”. The substance also returned a pIC50 in data set [2] of 8.07.
In the case of “4-*I-benzoyl-^1 Arg-^2 Arg-^3 Pro-^4 Tyr-^5 Ile-^6 Leu-OH [(4)]”, the enzymatic stability entry in data set [1] was “sufficient”. Further, the pIC50 in data set [2] was 8.10.
With “(2-*I-phenyl)acetyl-^1 Arg-^2 Arg-^3 Pro-^4 Tyr-^5 Ile-^6 Leu-OH [(1)]”, the enzymatic stability entry in data set [1] is “sufficient”. The same substance displayed a pIC50 in data set [2] of 8.05.
Taken in the same sequence, the figures for “(4*I-phenyl)acetyl-^1 Arg-^2 Arg-^3 Pro-^4 Tyr-^5 -Ile-^6 Leu-OH [(2)]” were “sufficient” and 7.87.
With “mono-iodo derivative of neurotensin: mono-iodo derivative of neurotensin itself; only tyrosine-3 iodinated with 125-iodide”, the Kd in data set [3] (binding to human brain neurotensin receptors) was 0.26 nM; in data set [4] it was 0.2 nM. In addition, the in vivo half-life result in data set [5] is on record as “only a few minutes”.
“monoiodo-[Trp^11 ]-neurotensin (QLYENKPRRPWIL; Neurotensin 125I on Tyr3; UniProt P30990 151-163, looked up, variant Y11W) [monoiodo-[Trp11]-neurotensin]”: the “affinity of neurotensin receptors in human brain” value in data set [3] (preliminary experiments, Sadoul et al. 1984) was “low affinity”. Besides, in data set [4], the Kd was 0.1 nM. Moreover, the in vivo half-life result in data set [5] was “only a few minutes”.
